{"source": "patent US7973055B2", "about": "“Crystalline forms of a biphenyl compound” (Theravance, Inc., priority 2006, dated 2011)", "target": "T1, M3 muscarinic receptor subtype (hM3) (Homo sapiens, UniProt P20309)", "T1 construct": "expressed in transfected cells", "T1 sequence (P20309 whole entry)": "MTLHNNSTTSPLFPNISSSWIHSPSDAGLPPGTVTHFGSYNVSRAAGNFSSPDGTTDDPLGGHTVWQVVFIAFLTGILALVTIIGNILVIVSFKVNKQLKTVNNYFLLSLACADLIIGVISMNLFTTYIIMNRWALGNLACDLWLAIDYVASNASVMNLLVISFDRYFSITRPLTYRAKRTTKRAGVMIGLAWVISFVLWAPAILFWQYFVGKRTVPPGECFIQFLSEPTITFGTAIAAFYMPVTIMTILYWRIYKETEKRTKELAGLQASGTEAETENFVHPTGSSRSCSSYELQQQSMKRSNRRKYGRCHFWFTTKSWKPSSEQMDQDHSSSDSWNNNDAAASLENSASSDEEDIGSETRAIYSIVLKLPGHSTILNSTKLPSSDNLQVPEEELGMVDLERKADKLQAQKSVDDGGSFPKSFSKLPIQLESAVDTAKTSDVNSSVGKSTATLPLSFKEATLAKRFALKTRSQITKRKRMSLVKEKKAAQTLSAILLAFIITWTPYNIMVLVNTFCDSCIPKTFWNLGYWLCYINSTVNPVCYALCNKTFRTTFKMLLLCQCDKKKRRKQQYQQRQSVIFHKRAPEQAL", "test": "Radioligand binding assay ([3H]-NMS displacement, CHO cell membranes)", "details": "[3H]-NMS 1 nM, this or a similar assay", "method": "CHO cell lines stably expressing cloned human hM1, hM2, hM3 and hM4 muscarinic receptor subtypes, respectively, were grown to near confluency in medium consisting of HAM's F-12 supplemented with 10% FBS and 250 μg/mL Geneticin. The cells were grown in a 5% CO2, 37° C. incubator and lifted with 2 mM EDTA in dPBS. Cells were collected by 5 minute centrifugation at 650×g, and cell pellets were either stored frozen at −80° C. or membranes were prepared immediately. For membrane preparation, cell pellets were resuspended in lysis buffer and homogenized with a Polytron PT-2100 tissue disrupter (Kinematica AG; 20 seconds×2 bursts). Crude membranes were centrifuged at 40,000×g for 15 minutes at 4° C. […] The protein concentration of the membrane suspension was determined by the method described in Lowry, O. et al., Journal of Biochemistry 193:265 (1951). […]\nRadioligand binding assays were performed in 96-well microtiter plates in a total assay volume of 100 μL. […] Filter plates were rinsed three times with wash buffer (10 mM HEPES) to remove unbound radioactivity. […] The plates were then counted in a PerkinElmer Topcount liquid scintillation counter (PerkinElmer Inc., Wellesley, Mass.). Binding data were analyzed by nonlinear regression analysis with the GraphPad Prism Software package (GraphPad Software, Inc., San Diego, Calif.) using the one-site competition model. […]", "data": [{"smiles": "CN(CCN1CCC(OC(=O)Nc2ccccc2-c2ccccc2)CC1)C(=O)c1cccc(C(=O)NCCNCc2ccc(O)cc2)c1", "note": "[compound of formula I, biphenyl-2-ylcarbamic acid 1-[2-({3-[2-(4-hydroxybenzylamino)ethylcarbamoyl]benzoyl}methylamino)ethyl]piperidin-4-yl ester]", "values": [{"measurement": "Ki", "value": "< 5", "unit": "nM"}]}]}
